Source: patent US20260347399A1, “BRAIN PENETRATING PEPTIDES AND METHODS OF USE” (priority 2022, published 2026)
“Also recorded” adds a separate entry of the source. Like-named read-outs stand apart in the source and are kept apart here. Peptide text beside a SMILES is read from it. * marks the point of attachment. 5FAM = O=C1OC2(c3ccc(O)cc3Oc3cc(O)ccc32)c2ccc(C(=O)*)cc21; FAM = 5(6)-carboxyfluorescein; Ahx = NCCCCCC(=O)O

Experiments:
[1] = tested on: GBM and normal brain parenchyma; assay: Synthetic peptide homing in glioma-bearing mice (IHC); type: in vivo, mouse; conditions: synthetic peptide i.v., 1 h; WT-GBM and VEGFko GBM-bearing mice
Method: CVGTNCY (SEQ ID NO:2) peptide-phage or control phage were injected iv into mice, after one hour circulation animals were perfused with 20 ml PBS, organs were collected, weighed, and dropped to 1% NP40-LB solution. Organs were homogenized and titer of each tissue was determined. FAM-labeled peptides (2 mM of peptide in PBS) were injected intravenously and 3 hours later the animals were perfused with 20 mL of PBS. The organs were excised, snap-frozen in the vapor of liquid nitrogen, and stored at −80 °C. For confocal microscopy, the tissues were sectioned at 15 μm and stained with antibodies and DAPI.
Cryosections (15 μm) on Superfrost Plus slides were fixed in cold methanol, washed in PBS, treated with 3% hydrogen peroxide, and blocked in PBS containing 0.05% Tween-20, 5% BSA, and 5% goat serum (GE Healthcare, UK) for 1 h. The sections were immunostained with rabbit anti-fluorescein (cat #A889, Thermo Fisher Scientific, MA, USA) antibody overnight at +4 °C. […] Sections were imaged with Leica Aperio VERSA microscope slide scanner. Imaged were processed with Aperio Image Scope (v12.4.3.5008).
The synthetic CVGTNCY (SEQ ID NO:2) peptide or scrambled CVGTNCY (SEQ ID NO:2) homing in WT-GBM and VEGFko GBM-bearing mice was analyzed after i.v. injection and perfusion of the animals. Cryosections of glioma-bearing brains were stained with anti-FAM antibody and tyramide amplification kit to enhance the signal of the peptide.
To assess homing of CVG peptide in glioblastoma, CVGTNCY (SEQ ID NO:2) peptide-phage was injected iv into mice bearing either WT-GBM, VEGFko, U87MG or NCH421k GBM, and to mice without a tumor. At one hour time point mice were perfused, brains and control organs collected and titered. […] (FIGS. 17A-17B) Distribution of CVG peptide in GBM and brain parenchyma was also assessed. CVGTNCY (SEQ ID NO:2) peptide or its scrambled version (CVYTCNG; (SEQ ID NO: 68)) was injected iv into glioma bearing mice, after 1 hour circulation mice were perfused and tissues of interest snap-frozen in liquid nitrogen.

[2] = target: human LRP1 (Homo sapiens, UniProt Q07954); assay: Surface plasmon resonance analysis; type: binding; conditions: SPR
Sequence of human LRP1 (Q07954 20-4544): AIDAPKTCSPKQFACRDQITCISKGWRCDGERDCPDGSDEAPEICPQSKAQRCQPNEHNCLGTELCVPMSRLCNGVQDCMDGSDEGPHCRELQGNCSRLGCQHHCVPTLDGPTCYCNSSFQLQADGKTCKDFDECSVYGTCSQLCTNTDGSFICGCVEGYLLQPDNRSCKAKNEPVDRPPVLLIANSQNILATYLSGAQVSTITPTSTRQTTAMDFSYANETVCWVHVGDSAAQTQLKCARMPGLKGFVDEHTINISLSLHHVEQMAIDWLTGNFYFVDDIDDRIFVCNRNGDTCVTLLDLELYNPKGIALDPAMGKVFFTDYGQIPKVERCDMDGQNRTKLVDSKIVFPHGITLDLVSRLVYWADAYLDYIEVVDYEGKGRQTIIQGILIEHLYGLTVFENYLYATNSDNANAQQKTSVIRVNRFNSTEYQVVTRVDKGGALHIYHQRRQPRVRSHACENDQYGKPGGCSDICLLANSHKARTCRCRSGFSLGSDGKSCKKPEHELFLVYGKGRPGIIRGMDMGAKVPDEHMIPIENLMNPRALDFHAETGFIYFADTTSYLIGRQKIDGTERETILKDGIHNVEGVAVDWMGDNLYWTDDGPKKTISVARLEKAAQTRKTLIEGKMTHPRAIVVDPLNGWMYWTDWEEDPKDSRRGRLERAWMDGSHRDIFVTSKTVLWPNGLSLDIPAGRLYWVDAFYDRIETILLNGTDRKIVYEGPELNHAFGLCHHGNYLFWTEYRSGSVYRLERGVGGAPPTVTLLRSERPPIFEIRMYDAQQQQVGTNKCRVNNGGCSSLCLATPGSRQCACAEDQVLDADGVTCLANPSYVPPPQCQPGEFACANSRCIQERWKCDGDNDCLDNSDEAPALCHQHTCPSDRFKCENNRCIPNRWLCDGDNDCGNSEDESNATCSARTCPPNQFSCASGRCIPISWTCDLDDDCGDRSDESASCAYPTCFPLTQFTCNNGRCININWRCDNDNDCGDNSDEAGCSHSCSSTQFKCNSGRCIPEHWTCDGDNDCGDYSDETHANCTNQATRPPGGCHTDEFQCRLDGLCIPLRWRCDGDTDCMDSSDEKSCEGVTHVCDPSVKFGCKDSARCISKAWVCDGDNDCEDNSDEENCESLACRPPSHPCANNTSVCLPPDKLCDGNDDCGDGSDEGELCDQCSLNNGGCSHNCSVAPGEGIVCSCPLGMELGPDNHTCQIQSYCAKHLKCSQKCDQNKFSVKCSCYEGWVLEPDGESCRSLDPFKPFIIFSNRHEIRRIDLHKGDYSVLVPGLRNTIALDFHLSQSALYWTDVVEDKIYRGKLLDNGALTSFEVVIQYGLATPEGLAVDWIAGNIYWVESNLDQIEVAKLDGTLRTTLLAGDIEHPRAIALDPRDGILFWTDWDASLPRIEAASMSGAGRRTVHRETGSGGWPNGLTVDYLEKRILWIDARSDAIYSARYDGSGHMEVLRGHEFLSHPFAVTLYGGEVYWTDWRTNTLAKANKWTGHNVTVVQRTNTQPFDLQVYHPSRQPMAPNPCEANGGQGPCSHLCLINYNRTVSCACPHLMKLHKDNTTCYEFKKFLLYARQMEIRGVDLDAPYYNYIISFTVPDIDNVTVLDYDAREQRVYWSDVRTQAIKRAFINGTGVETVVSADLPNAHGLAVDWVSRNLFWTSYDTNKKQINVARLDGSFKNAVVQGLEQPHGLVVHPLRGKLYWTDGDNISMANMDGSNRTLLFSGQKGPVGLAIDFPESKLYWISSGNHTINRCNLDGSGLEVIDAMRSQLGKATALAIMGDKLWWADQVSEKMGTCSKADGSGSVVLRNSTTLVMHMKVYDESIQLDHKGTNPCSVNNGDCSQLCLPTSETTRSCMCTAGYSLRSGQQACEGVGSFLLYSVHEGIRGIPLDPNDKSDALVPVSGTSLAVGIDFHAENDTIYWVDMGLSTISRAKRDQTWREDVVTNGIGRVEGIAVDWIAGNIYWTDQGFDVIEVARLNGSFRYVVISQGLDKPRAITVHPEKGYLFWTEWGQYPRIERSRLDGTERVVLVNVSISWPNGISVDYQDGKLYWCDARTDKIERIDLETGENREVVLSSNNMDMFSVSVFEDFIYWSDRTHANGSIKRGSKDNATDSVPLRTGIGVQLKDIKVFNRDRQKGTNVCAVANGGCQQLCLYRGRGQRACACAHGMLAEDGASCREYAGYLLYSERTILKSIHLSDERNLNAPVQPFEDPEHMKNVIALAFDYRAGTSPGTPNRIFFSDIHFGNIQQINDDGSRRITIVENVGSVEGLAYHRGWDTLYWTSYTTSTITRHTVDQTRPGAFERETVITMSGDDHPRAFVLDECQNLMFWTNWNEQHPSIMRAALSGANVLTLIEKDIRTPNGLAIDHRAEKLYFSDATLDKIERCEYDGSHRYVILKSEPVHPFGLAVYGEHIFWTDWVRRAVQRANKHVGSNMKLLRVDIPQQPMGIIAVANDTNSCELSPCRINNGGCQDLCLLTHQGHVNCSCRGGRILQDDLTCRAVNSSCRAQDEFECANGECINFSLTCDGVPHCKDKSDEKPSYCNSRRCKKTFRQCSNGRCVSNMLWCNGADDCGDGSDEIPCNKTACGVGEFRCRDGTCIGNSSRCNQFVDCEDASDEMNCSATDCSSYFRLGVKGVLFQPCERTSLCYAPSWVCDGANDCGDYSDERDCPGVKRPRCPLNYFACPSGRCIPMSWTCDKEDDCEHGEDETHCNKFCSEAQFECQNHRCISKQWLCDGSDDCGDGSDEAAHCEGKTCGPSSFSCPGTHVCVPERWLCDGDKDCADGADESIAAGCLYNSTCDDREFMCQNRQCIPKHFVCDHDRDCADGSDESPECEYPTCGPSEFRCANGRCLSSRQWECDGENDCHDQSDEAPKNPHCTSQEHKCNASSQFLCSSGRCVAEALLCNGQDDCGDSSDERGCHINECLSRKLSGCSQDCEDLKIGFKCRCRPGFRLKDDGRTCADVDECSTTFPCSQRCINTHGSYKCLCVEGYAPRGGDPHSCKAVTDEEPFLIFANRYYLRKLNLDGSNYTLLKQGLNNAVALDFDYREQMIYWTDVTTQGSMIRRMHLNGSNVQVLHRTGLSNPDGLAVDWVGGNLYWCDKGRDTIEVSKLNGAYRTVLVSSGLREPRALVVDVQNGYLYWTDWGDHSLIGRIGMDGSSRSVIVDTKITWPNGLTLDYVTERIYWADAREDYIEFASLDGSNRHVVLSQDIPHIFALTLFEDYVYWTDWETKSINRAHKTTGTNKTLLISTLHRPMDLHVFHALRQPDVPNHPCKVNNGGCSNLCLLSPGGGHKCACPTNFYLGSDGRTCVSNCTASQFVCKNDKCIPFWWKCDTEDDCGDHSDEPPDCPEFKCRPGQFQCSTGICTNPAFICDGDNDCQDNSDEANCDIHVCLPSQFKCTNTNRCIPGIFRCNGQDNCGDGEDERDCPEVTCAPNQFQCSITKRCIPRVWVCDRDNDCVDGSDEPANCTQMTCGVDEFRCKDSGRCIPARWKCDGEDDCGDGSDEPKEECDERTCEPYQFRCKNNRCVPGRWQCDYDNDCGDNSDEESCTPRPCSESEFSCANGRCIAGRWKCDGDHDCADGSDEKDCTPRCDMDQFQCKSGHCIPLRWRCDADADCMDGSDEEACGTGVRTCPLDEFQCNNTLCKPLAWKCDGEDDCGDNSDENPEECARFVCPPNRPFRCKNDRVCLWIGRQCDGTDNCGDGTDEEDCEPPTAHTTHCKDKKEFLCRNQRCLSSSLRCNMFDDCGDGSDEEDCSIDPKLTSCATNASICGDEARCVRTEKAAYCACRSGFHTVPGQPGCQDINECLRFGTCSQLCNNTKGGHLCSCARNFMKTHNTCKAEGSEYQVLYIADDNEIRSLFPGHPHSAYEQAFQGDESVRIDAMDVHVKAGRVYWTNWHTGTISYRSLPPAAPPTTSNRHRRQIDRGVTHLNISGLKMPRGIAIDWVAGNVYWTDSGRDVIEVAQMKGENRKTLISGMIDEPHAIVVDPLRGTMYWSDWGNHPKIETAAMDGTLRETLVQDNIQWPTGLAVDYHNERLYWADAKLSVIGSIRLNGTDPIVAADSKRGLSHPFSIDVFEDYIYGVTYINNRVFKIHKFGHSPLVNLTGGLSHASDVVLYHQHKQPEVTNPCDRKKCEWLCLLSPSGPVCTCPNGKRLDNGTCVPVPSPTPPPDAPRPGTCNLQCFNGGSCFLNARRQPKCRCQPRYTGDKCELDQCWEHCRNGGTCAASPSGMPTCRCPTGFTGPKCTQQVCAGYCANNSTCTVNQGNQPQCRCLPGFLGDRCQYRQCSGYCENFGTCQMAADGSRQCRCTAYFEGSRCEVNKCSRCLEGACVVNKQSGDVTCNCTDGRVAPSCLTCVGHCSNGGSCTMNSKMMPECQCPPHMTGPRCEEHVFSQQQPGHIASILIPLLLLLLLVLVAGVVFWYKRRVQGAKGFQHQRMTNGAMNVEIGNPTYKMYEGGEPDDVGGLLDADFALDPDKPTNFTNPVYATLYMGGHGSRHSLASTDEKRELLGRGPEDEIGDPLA
Method: Whether Cerepep (SRRVISRAKLAAAL (SEQ ID NO:9)) binds to human LRP1 purified from placenta was tested using surface plasmon resonance analysis. […] Furthermore, binding of CP-neutravidin complex to LRP1 is inhibited by RAP and EDTA, as can be expected with LRP1 ligands.
To determine which amino acid positions are important for brain homing of SERVISRAKLAAAL (SEQ ID NO:9), a pool of peptide-phage clones was compiled, where every amino acid position was one-by-one changed to alanine (alanines were changed to leucines). The peptide-phages were mixed in equimolar ratio, the Cerepep phage was included as a positive control and insertless as a negative control. The phage mix was injected into mice and following a 1 h circulation the amount of different phage clones in the brain was determined using HTS. […] Surface plasmon resonance analysis with human LRP-1 immobilized on a BIAcore sensor chip was used to assess whether CP-neutravidin complex directly interacts with human LRP-1. Angiopep-2-neutravidin complex was used as a positive control (FIGS. 7A-7B).

[3] = tested on: Neuro2A cells; assay: Effect of endocytic inhibitors on CP-AgNP uptake (flow cytometry); type: cell-based, mouse; conditions: inhibitor 30 min at 37 °C: nystatin 50 μM, cytochalasin D 4 μM, chlorpromazine 30 μM
Method: […] The CP-AgNPs or control biotin-AgNPs were then added, and the cells were incubated at 37 °C for 1h, treated with an etching solution to remove accessible surface-bound AgNPs and subsequently washed with DPBS. The fluorescence of the labeled AgNPs was detected using the BD Accuri flow cytometer by monitoring the 555 nm channel FL2 and analyzed using FCS Express 7 software.
To study how treatment with endocytic inhibitors (nystatin, EIPA, cytochalasin D and chlorpromazine) affects the uptake of CP-AgNPs in Neuro2A cells, flow cytometry was used. Nystatin was used to block caveolae/lipid-mediated endocytosis, EIPA to block micropinocytosis, cytochalasin D to block actin polymerization and micropinocytosis and chlorpromazine to block clathrin-mediated endocytosis.

[4] = tested on: Huntington's disease subjects; conditions: human, in vivo; cited from earlier work
[5] = tested on: ADHD / ASD subjects; conditions: cited from earlier work
[6] = tested on: ALS subjects; conditions: human, in vivo, cited from earlier work
[7] = tested on: mouse brain; assay: FAM-Cerepep brain distribution; type: in vivo; conditions: 100 μl of 2 mM i.v., 2.5 h circulation
Method: To assess the ability of FAM-conjugated to Cerepep to traverse the BBB, 100 μl of 2 mM FAM-Cerepep or FAM-scrambled Control peptide (SARVISRAKLARAL (SEQ ID NO:70)) was injected into the tail vein of mice n=3. After 2.5 h of circulation, the animals were anesthetized and perfused, the brains were collected, cryosected, fixed, permeabilized, and incubated with CD31-rat and anti-fluorescein-rabbit primary antibodies at room temperature for 2 hours. After washes, sections were incubated with Alexa Fluor […] anti-rat and Alexa Fluor 647 anti-rabbit secondary antibodies, washed and stained with DAPI. Images were taken using a confocal microscope in 4 different areas of the brain (cortex, cerebellum, hippocampus, brainstem).
To quantify FAM-Cerepep in different regions of the brain, expts were set up to assess fluorescence intensity. Briefly, 100 μl of 2 mM FAM-Cerepep or FAM-scrambled peptide (SARVISRAKLARAL (SEQ ID NO:70)) was injected into the tail vein of mice n=3. […] Images were taken under a confocal microscope in 4 different areas of the brain (cortex, cerebellum, hippocampus, brainstem), and fluorescence intensity in each brain region was measured and quantified using ImageJ, as depicted in FIGS. 22A-22E.

[8] = tested on: microglia; assay: FAM-Cerepep colocalization with microglia; type: in vivo, mouse; conditions: 100 μl of 2 mM i.v., 2.5 h
Method: To assess the ability of FAM-conjugated to Cerepep to colocalize with microglia, 100 μl of 2 mM FAM-Cerepep or FAM-scramble (SARVISRAKLARAL (SEQ ID NO: 70)) was injected into the tail vein of mice n=3. After 2.5 h of circulation, the animals were anesthetized and perfused, the brains were collected, cryosected, fixed, permeabilized, and incubated with CD11b-rat and anti-fluorescein-rabbit primary antibodies at room temperature for 2 hours. After washes, sections were incubated with Alexa Fluor […] anti-rat and Alexa Fluor 647 anti-rabbit secondary antibodies, sections were washed and stained with DAPI. Pictures were taken under a confocal microscope in 4 different areas of the brain (cortex, cerebellum, hippocampus, brainstem).

[9] = tested on: mature neurons; assay: FAM-Cerepep colocalization with mature neurons; type: in vivo, mouse; conditions: 100 μl of 2 mM i.v., 2.5 h
Method: (§1) To assess the ability of FAM-conjugated to Cerepep to colocalize with mature neurons, 100 μl of 2 mM FAM-Cerepep or FAM-scramble (SARVISRAKLARAL (SEQ ID NO: 70)) was injected into the tail vein of mice n=3. After 2.5 h of circulation, the animals were anesthetized and perfused, the brains were collected, cryosected, fixed, permeabilized, and incubated with NeuN-mouse and anti-fluorescein-rabbit primary antibodies for 2 hours at room temperature. After washes, sections were incubated with Alexa Fluor […] anti-mouse and Alexa Fluor 647 anti-rabbit secondary antibodies, sections were washed and stained with DAPI. Pictures were taken under a confocal microscope in 4 different areas of the brain (cortex, cerebellum, hippocampus, brainstem).

[10] = tested on: Neuro2A cells; assay: In vitro FAM-peptide binding and uptake; type: cell-based, mouse; conditions: 30 μM, 1 h, 4 °C (binding) or 37 °C (uptake)
Method: To assess the binding and uptake of Cerepep peptide, Neuro2A were cultured in 24-well plates on polylysine coated glass coverslips until 80-90% confluency. FAM-Cerepep (FAM-Ahx-SRRVISRAKLAAAL-OH (SEQ ID NO:9)) or control FAM-RPAR (FAM-RPARPAR-OH (SEQ ID NO:74)) peptide with the final concentration of 30 µM was added to Neuro2A cells in growth media and incubated at 4 °C (to study the binding) or 37 °C (to study the uptake) for 1 h. The cells were washed 4 times with growth media and fixed in methanol. The samples were stained with anti-fluorescein antibody to enhance the FAM signal. The fixed cells were first blocked with PBST (PBS+0.05% Tween 20), 5% BSA, 5% goat serum at RT for 30 min, followed by incubation with rabbit anti-fluorescein IgG (cat. no. A889, Thermo Fisher Scientific, MA, USA) at 4 °C for O/N and Alexa 647 goat anti-rabbit IgG secondary antibody at RT for 1h. Nuclei were counterstained with DAPI at 1 μg/ml. The coverslips were mounted on glass slides with Fluoromount-G (Electron Microscopy Sciences, PA, USA), imaged using confocal microscopy (Olympus FV1200MPE, Tokyo, Japan) and analyzed using the FV10-ASW4.2 software.
The binding (at 4 °C) and uptake (at 37 °C) of synthetic FAM-Cerepep by Neuro2A cells was also studied, comparing it to a control FAM-RPAR peptide which has a similar charge.

[11] = tested on: astrocytes; assay: FAM-Cerepep colocalization with astrocytes; type: in vivo, mouse; conditions: 100 μl of 2 mM i.v., 2.5 h
Method: as §1, with “astrocytes,” for “mature neurons,”, “NO:70))” for “NO: 70))”, “GFAP-rat” for “NeuN-mouse”, “anti-rat” for “anti-mouse”

[12] = tested on: P3 human stem cells; assay: Inhibition of AgNP-Cerepep binding (FACS); type: cell-based; conditions: 4 °C, 1 h
Method: Briefly, P3 human stem cells were incubated with the indicated antibody (AB) or RAP (diluted in 20% of glycerol) at 4 °C for 1 h, after cells were exposed to AgNP-control or AgNP-Cerepep for 1 h at 4 °C, then the cells were analyzed by FACS.

For CC(C)[C@H](NC(=O)[C@H](CS)NC(=O)CCCCCNC(=O)c1ccc2c(c1)C(=O)OC21c2ccc(O)cc2Oc2cc(O)ccc21)C(=O)N[C@@H](Cc1ccc(O)cc1)C(=O)N[C@H](C(=O)N[C@@H](CS)C(=O)N[C@@H](CC(N)=O)C(=O)NCC(=O)O)[C@@H](C)O [CVYTCNG, reference compound] ({5FAM-Ahx}-CVYTCNG-OH), the “detection in brain parenchyma” value [1] was “not detectable in the brain parenchyma; also recorded: no targeting to brain parenchyma” and the “detection/targeting in GBM” value [1] was “binding was detected in the GBM”.
With O=C(O)CN(CCN(CC(=O)O)CC(=O)O)CC(=O)O [EDTA] the “inhibition of CP-neutravidin binding to LRP1” value [2] was “inhibited”.
In the case of CC1C=CC=CCCC=CC=CC=CC=CC(OC2OC(C)C(O)C(N)C2O)CC2OC(O)(CC(O)C(O)CCC(O)CC(O)CC(O)CC(=O)OC(C)C(C)C1O)CC(O)C2C(=O)O (stereo not drawn) [Nystatin], the “inhibitory effect on the uptake of CP-AgNPs” value [3] is reported as “did not have a statistically significant inhibitory effect”.
For NC12CC3CC(CC(C3)C1)C2 [amantadine], the “results in Huntington's disease” value [4] is listed as “preliminary positive results”.
For COC(=O)C(c1ccccc1)C1CCCCN1 (stereo not drawn) [methylphenidate], the “treatment of ADHD” value ([5]; ADHD) is given as “safe and effective” and the “treatment of hyperactivity in children with ASD” value ([5]; children with ASD) is given as “effectively treat hyperactivity in children with ASD”.
For CC(Cc1ccccc1)(NC(=O)CN)c1ccccc1 (stereo not drawn) [remacemide], the “results in Huntington's disease” value [4] is listed as “preliminary positive results”.
In the case of Nc1nc2ccc(OC(F)(F)F)cc2s1 [riluzole, 2-amino-6-(trifluoromethoxy)benzothiazole], the “survival time in subjects with ALS” value [6] is listed as “borderline significance with respect to survival time” and the “survival time in subjects with ALS” value ([6]; listed as Riluzole) is listed as “improved survival time in subjects with ALS”.
In the case of “FAM-Ahx-SRRVISRAKLAAAL-OH ({FAM-Ahx}-SRRVISRAKLAAAL-OH) [FAM-Cerepep]”, the detection in brain [7] is reported as “could be detected in the brain tissues”, the “association with microglia (CD11b)” value [8] is reported as “could be detected associated with microglia in the brain tissues” and the “association with neurons (NeuN)” value [9] is reported as “could be detected associated with neurons in the brain tissues”. The “binding and uptake of FAM-peptide” value [10] was “bound to and was taken up by Neuro2A cells” and the “association with astrocytes (GFAP)” value [11] was “could be detected associated with astrocytes in the brain tissues”.
With “FAM-RPARPAR-OH ({FAM}-RPARPAR-OH) [reference compound]” the “binding and uptake of FAM-peptide” value [10] was “only background binding”.
In the case of “RAP: Receptor Associated Protein, inhibitor of several LDL-receptor proteins”, the “effect on AgNP-Cerepep binding to P3 cells” value [12] is reported as “reduced” and the “inhibition of CP-neutravidin binding to LRP1” value [2] is reported as “inhibited”.
